Results as given in US20240390340A1 (INCYTE CORPORATION, priority 2023, published 2024).

Key:
KRAS = KRAS inhibition, assay not specified (at least one assay described herein); conditions: Peak 1 versus Peak 2 of prep. LCMS; assay not stated
KRAS G12D = KRAS G12D (Homo sapiens, UniProt P01116, G12D); assay: GDP-GTP exchange assay (bodipy-GDP/GppNHp, SOS1), KRAS G12D; format: biochemical; conditions: Table H, column G12D; for compounds isolated as several atropisomers/diastereoisomers the value for the most potent isomer is quoted; read-out: KRAS G12D exchange assay IC50
KRAS G12V = KRAS G12V (Homo sapiens, UniProt P01116, G12V); assay: GDP-GTP exchange assay (bodipy-GDP/GppNHp, SOS1), KRAS G12V; format: biochemical; conditions: Table H, column G12V; for compounds isolated as several atropisomers/diastereoisomers the value for the most potent isomer is quoted; read-out: KRAS G12V exchange assay IC50
Caco-2 cells = assay: Caco2 assay (Papp A-B); format: in vitro ADME; conditions: test compound 50 μM, 120 min, 37° C.
Outline: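 Caco-2 monolayers grown 22–25 days on Transwells (TEER 300 Ω·cm^2) were dosed apically with 50 μM compound in HBSS; basolateral receiver held HBSS with 4% BSA. Incubation 120 min at 37° C, 5% CO2; donor and receiver samples quantified by LCMS and Papp A-B calculated from receiver-side cumulative flux slope.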

Sequence of KRAS G12D (P01116 1-188 isoform P01116-2 G12D): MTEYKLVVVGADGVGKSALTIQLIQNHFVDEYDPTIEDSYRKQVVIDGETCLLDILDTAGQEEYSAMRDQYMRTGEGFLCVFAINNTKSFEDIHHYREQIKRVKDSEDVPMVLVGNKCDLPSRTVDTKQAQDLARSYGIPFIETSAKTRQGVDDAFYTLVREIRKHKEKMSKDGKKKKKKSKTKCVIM
Sequence of KRAS G12V (P01116 1-188 isoform P01116-2 G12V): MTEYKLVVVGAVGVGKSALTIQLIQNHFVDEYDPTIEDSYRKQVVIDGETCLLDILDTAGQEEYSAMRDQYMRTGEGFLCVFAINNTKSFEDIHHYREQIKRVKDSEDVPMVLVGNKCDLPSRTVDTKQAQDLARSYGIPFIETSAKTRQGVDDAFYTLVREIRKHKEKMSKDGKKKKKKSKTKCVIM

Compound	potency of the separated diastereoisomer (atropisomer) in words (KRAS)	IC50 (KRAS G12D)	IC50 (KRAS G12V)	Caco-2 (Caco-2 cells)
C[C@@H](O)c1nc2c(F)c(-c3cccc(Cl)c3Cl)c(CCC#N)cc2c2c1cc([C@H]1[C@@H](F)[C@H](Oc3ccccn3)CN1C(=O)C1CC1)n2[C@H]1[C@H]2CN[C@@H]1C2 (single isomer, unassigned)	potent			
C[C@@H]1[C@@H](Oc2cc(F)ccn2)C[C@H](c2cc3c([C@@H](C)O)nc4c(F)c(-c5cccc(Cl)c5Cl)c(CCC#N)cc4c3n2[C@H]2[C@H]3CN[C@@H]2C3)N1C(=O)C1CC1 (single isomer, unassigned) [Example 63, Diastereomer 1 (Peak 1)]	potent			
COc1ncccc1O[C@H]1C[C@H](c2cc3c(C)nc4c(F)c(-c5cccc(Cl)c5Cl)c(CCC#N)cc4c3n2[C@H]2[C@H]3CN[C@@H]2C3)N(C(=O)C2CC2)C1 (single isomer, unassigned) [Example 1, Diastereomer 1 (Peak 1)]	potent			
Cc1cc(F)cc(O[C@H]2C[C@H](c3cc4c([C@@H](C)O)nc5c(F)c(-c6cccc(Cl)c6Cl)c(CCC#N)cc5c4n3[C@H]3[C@H]4CN[C@@H]3C4)N(C(=O)C3CC3)C2)n1 (single isomer, unassigned) [Example 62, Diastereomer 1 (Peak 1)]	potent			
Cc1nc2c(F)c(-c3cccc(Cl)c3Cl)c(CCC#N)cc2c2c1cc([C@H]1C[C@H](n3cc(C(C)(C)C)nn3)CN1C(=O)C1CC1)n2[C@H]1[C@H]2CN[C@@H]1C2 (single isomer, unassigned) [Example 4, Diastereomer 1 (Peak 1)]	potent			
CC(O)c1nc2c(F)c(-c3cccc(Cl)c3Cl)c(CCC#N)cc2c2c1cc([C@H]1C[C@H](OCc3ccc(F)cc3C#N)CN1C(=O)C1(C)CC1)n2[C@H]1[C@H]2CN[C@@H]1C2 (single isomer, unassigned) [Example 35, Diastereomer 1 (Peak 1)]	potent			
Cc1nc2c(F)c(-c3cccc(Cl)c3Cl)c(CCC#N)cc2c2c1cc([C@H]1C[C@](C)(OCc3ccccc3)CN1C(=O)C1CC1)n2[C@H]1[C@H]2CN[C@@H]1C2 (single isomer, unassigned) [Example 81, Diastereomer 1 (Peak 1)]	potent			
COc1nccc(O[C@H]2C[C@H](c3cc4c([C@@H](C)O)nc5c(F)c(-c6cccc(Cl)c6Cl)c(CCC#N)cc5c4n3[C@H]3[C@H]4CN[C@@H]3C4)N(C(=O)C3CC3)C2)c1F (single isomer, unassigned) [Example 53, Diastereomer 1 (Peak 1)]	potent			
COc1nccc(O[C@H]2C[C@H](c3cc4c([C@@H](C)O)nc5c(F)c(-c6cccc(Cl)c6Cl)c(CCC#N)cc5c4n3[C@H]3[C@H]4CN[C@@H]3C4)N(C(=O)C3CC3)C2)c1F [Example 53, 3-(1-((1R,4R,5S)-2-Azabicyclo[2.1.1]hexan-5-yl)-2-((2R,4S)-1-(cyclopropanecarbonyl)-4-((3-fluoro-2-methoxypyridin-4-yl)oxy)pyrrolidin-2-yl)-7-(2,3-dichlorophenyl)-6-fluoro-4-((R)-1-hydroxyethyl)-1H-pyrrolo[3,2-c]quinolin-8-yl)propanenitrile]		≤ 100 nM	≤ 100 nM	++ (a Caco-2 value of >0.5 but ≤1)
Cc1nc2c(F)c(-c3cccc(Cl)c3Cl)c(CCC#N)cc2c2c1cc([C@H]1C[C@H](Oc3ncccc3F)CN1C(=O)C1CC1)n2[C@H]1[C@H]2CN[C@@H]1C2 [Example 58, 3-(1-((1R,4R,5S)-2-Azabicyclo[2.1.1]hexan-5-yl)-2-((2R,4S)-1-(cyclopropanecarbonyl)-4-((3-fluoropyridin-2-yl)oxy)pyrrolidin-2-yl)-7-(2,3-dichlorophenyl)-6-fluoro-4-methyl-1H-pyrrolo[3,2-c]quinolin-8-yl)propanenitrile]		≤ 100 nM	≤ 100 nM	+++ (a Caco-2 value of >1)
Cc1nc2c(F)c(-c3cccc(Cl)c3Cl)c(CCC#N)cc2c2c1cc([C@H]1C[C@H](Oc3cccnc3F)CN1C(=O)C1CC1)n2[C@H]1[C@H]2CN[C@@H]1C2 [Example 39, 3-(1-((1R,4R,5S)-2-Azabicyclo[2.1.1]hexan-5-yl)-2-((2R,4S)-1-(cyclopropanecarbonyl)-4-((2-fluoropyridin-3-yl)oxy)pyrrolidin-2-yl)-7-(2,3-dichlorophenyl)-6-fluoro-4-methyl-1H-pyrrolo[3,2-c]quinolin-8-yl)propanenitrile]		≤ 100 nM	≤ 100 nM	++ (a Caco-2 value of >0.5 but ≤1)
Cc1ccccc1O[C@H]1C[C@H](c2cc3c(C)nc4c(F)c(-c5cccc(Cl)c5Cl)c(CCC#N)cc4c3n2[C@H]2[C@H]3CN[C@@H]2C3)N(C(=O)C2CC2)C1 [Example 28, 3-(1-((1R,4R,5S)-2-azabicyclo[2.1.1]hexan-5-yl)-2-((2R,4S)-1-(cyclopropanecarbonyl)-4-(o-tolyloxy)pyrrolidin-2-yl)-7-(2,3-dichlorophenyl)-6-fluoro-4-methyl-1H-pyrrolo[3,2-c]quinolin-8-yl)propanenitrile]		≤ 100 nM	≤ 100 nM	++ (a Caco-2 value of >0.5 but ≤1)
Cc1nc2c(F)c(-c3cccc(Cl)c3Cl)c(CCC#N)cc2c2c1cc([C@H]1C[C@H](Oc3cccc(N4CC(F)C4)n3)CN1C(=O)C1CC1)n2[C@H]1[C@H]2CN[C@@H]1C2 [Example 65, 3-(1-((1R,4R,5S)-2-Azabicyclo[2.1.1]hexan-5-yl)-2-((2R,4S)-1-(cyclopropanecarbonyl)-4-((6-(3-fluoroazetidin-1-yl)pyridin-2-yl)oxy)pyrrolidin-2-yl)-7-(2,3-dichlorophenyl)-6-fluoro-4-methyl-1H-pyrrolo[3,2-c]quinolin-8-yl)propanenitrile]		≤ 100 nM	≤ 100 nM	+ (a Caco-2 value of ≤0.5)
Cc1ccccc1CO[C@H]1C[C@H](c2cc3c(C)nc4c(F)c(-c5cccc(Cl)c5Cl)c(CCC#N)cc4c3n2[C@H]2[C@H]3CN[C@@H]2C3)N(C(=O)C2CC2)C1 [Example 21]		≤ 100 nM	≤ 100 nM	+ (a Caco-2 value of ≤0.5)
Cc1nc2c(F)c(-c3cccc(Cl)c3Cl)c(CCC#N)cc2c2c1cc([C@H]1C[C@H](n3nncc3C3CCCC3)CN1C(=O)C1CC1)n2[C@H]1[C@H]2CN[C@@H]1C2 [Example 71, 3-(1-((1R,4R,5S)-2-Azabicyclo[2.1.1]hexan-5-yl)-2-((2R,4S)-4-(5-cyclopentyl-1H-1,2,3-triazol-1-yl)-1-(cyclopropanecarbonyl)pyrrolidin-2-yl)-7-(2,3-dichlorophenyl)-6-fluoro-4-methyl-1H-pyrrolo[3,2-c]quinolin-8-yl)propanenitrile]		≤ 100 nM	≤ 100 nM	+ (a Caco-2 value of ≤0.5)
Cc1nc2c(F)c(-c3cccc(Cl)c3Cl)c(CCC#N)cc2c2c1cc([C@H]1C[C@H](OC(C)c3ccon3)CN1C(=O)C1CC1)n2[C@H]1[C@H]2CN[C@@H]1C2 (some centres unmarked) [Example 32]		≤ 100 nM	≤ 100 nM	+ (a Caco-2 value of ≤0.5)
Cc1nc2c(F)c(-c3cccc(Cl)c3Cl)c(CCC#N)cc2c2c1cc([C@H]1C[C@H](Oc3ccc(C#N)cn3)CN1C(=O)C1CC1)n2[C@H]1[C@H]2CN[C@@H]1C2 [Example 60, 6-(((3S,5R)-5-(1-((1R,4R,5S)-2-Azabicyclo[2.1.1]hexan-5-yl)-8-(2-cyanoethyl)-7-(2,3-dichlorophenyl)-6-fluoro-4-methyl-1H-pyrrolo[3,2-c]quinolin-2-yl)-1-(cyclopropanecarbonyl)pyrrolidin-3-yl)oxy)nicotinonitrile]		≤ 100 nM	≤ 100 nM	+ (a Caco-2 value of ≤0.5)
Cc1nc2c(F)c(-c3cccc(Cl)c3Cl)c(CCC#N)cc2c2c1cc([C@H]1C[C@H](OC3(C)CCC3)CN1C(=O)C1CC1)n2[C@H]1[C@H]2CN[C@@H]1C2 [Example 78, 3-(1-((1R,4R,5S)-2-Azabicyclo[2.1.1]hexan-5-yl)-2-((2R,4S)-1-(cyclopropanecarbonyl)-4-(1-methylcyclobutoxy)pyrrolidin-2-yl)-7-(2,3-dichlorophenyl)-6-fluoro-4-methyl-1H-pyrrolo[3,2-c]quinolin-8-yl)propanenitrile]		≤ 100 nM	≤ 100 nM	+++ (a Caco-2 value of >1)
Cc1nc2c(F)c(-c3cccc(Cl)c3Cl)c(CCC#N)cc2c2c1cc([C@H]1C[C@H](n3nnc(N4CCCC4)n3)CN1C(=O)C1CC1)n2[C@H]1[C@H]2CN[C@@H]1C2 [Example 75, 3-(1-((1R,4R,5S)-2-Azabicyclo[2.1.1]hexan-5-yl)-2-((2R,4S)-1-(cyclopropanecarbonyl)-4-(5-(pyrrolidin-1-yl)-2H-tetrazol-2-yl)pyrrolidin-2-yl)-7-(2,3-dichlorophenyl)-6-fluoro-4-methyl-1H-pyrrolo[3,2-c]quinolin-8-yl)propanenitrile]		≤ 100 nM	≤ 100 nM	+ (a Caco-2 value of ≤0.5)
COc1cc(O[C@H]2C[C@H](c3cc4c(C)nc5c(F)c(-c6cccc(Cl)c6Cl)c(CCC#N)cc5c4n3[C@H]3[C@H]4CN[C@@H]3C4)N(C(=O)C3CC3)[C@@H]2C)ccn1 [Example 41, 3-(1-((1R,4R,5S)-2-Azabicyclo[2.1.1]hexan-5-yl)-2-((2R,4S,5R)-1-(cyclopropanecarbonyl)-4-((2-methoxypyridin-4-yl)oxy)-5-methylpyrrolidin-2-yl)-7-(2,3-dichlorophenyl)-6-fluoro-4-methyl-1H-pyrrolo[3,2-c]quinolin-8-yl)propanenitrile]		≤ 100 nM	≤ 100 nM	++ (a Caco-2 value of >0.5 but ≤1)
